As a reminder, the inhibition is how much of the control response was suppressed. One may read the inhibition of growth as the drop in the measured response relative to a control, in per cent. Low values mean little suppression, high ones strong suppression.

Here are results for six molecules from paper PMC12750888, “Design, synthesis, and anti-Toxoplasma gondii evaluation of β-carboline derivatives” (Parasites & Vectors, 2025).

Series [1] concerns T. gondii RH strain tachyzoites. In words: In vitro anti-proliferation assay (qPCR of 529-bp repeat). It is filed as cell-based, Toxoplasma gondii. Particulars: for IC50: Toxoplasma gondii, RH strain in Vero cells, 24 h treatment, qPCR, read-out: IC50, inhibition of T. gondii proliferation. The protocol:
The antiproliferative effects of NBZ023 and NBZ035 on T. gondii were determined via qPCR, which was performed by using a QuantStudio 3 Flex real-time PCR system (Life Technologies). Cells were infected with tachyzoites (2 × 10^5 per well) for 6 h, then treated with NBZ023, NBZ035 (0.24‒30 μM) or pyrimethamine (0.4 μM) for 24 h, and washed twice with PBS. Infected or uninfected cells that were cultured with DMEM (1% FBS) were used as the parasite or the host cell control group, respectively. Total genomic DNA from the cell samples was isolated with the DNAiso reagent (Takara), and the levels of the 529-bp repeat sequence of T. gondii were measured via qPCR as before.
(In general: In qPCR the cycle at which signal appears reflects the starting amount.)

Series [2] has the same test system. In words: In vitro anti-invasion assay (qPCR; RH-GFP fluorescence microscopy). It is filed as cell-based, Toxoplasma gondii. The following applies: for IC50: Toxoplasma gondii, Vero cells, 2 h after infection, read-out: IC50, inhibition of T. gondii invasion; for number of parasitophorous vacuoles (PVs) invaded by RH-GFP tachyzoites: fluorescence microscopy, compared with control and positive control groups. Here is the method:
Vero cells were seeded onto 6-well plates and cultured with DMEM supplemented with 10% FBS to obtain cell monolayers. The medium was replaced with fresh DMEM (1% FBS) containing NBZ023 or NBZ035 (0.24–30 μM), pyrimethamine (0.4 μM) or no drugs (as a control), and tachyzoites (2 × 10^6 per well) were then inoculated into the confluent Vero cell monolayers. At 2 h after infection, the cell monolayers were washed twice with PBS to remove extracellular tachyzoites and then total genomic DNA from the cell samples was isolated with the DNAiso reagent (Takara). The anti-invasion capabilities of NBZ023 and NBZ035 were determined by qPCR. The T. gondii RH strain with green fluorescence was seeded as described above. After infection, the cells were incubated for 36 h to fully observe the infection status of the parasites via fluorescence microscopy.

Series [3] deals with T. gondii Type I tachyzoites. In words: In vivo efficacy against acute T. gondii infection in mice (tissue parasite burden by qPCR). The following applies: acute RH infection, once daily for 7 days, compared with parasite control, NBZ compounds 10 mg/kg BW intraperitoneally, positive control orally. Set-up: species or system BALB/c mice. The protocol:
Female BALB/c mice (18-20 g, 6-8 weeks old) were divided into 4 groups consisting of 6 mice each, and each mouse was injected intraperitoneally with 2 × 10^3 Type I tachyzoites. Four hours after inoculation, the treatments were administered once per day for 7 consecutive days. NBZ023 and NBZ035 were dissolved in isotonic saline containing 5% ethanol and 5% Cremophor EL to a concentration of 1 mg/mL for in vivo experiments. Sulfadiazine (10 mg/mL, Sigma, USA), pyrimethamine (5 mg/mL, Sigma, USA), and folinic acid (1.5 mg/mL, Sigma, USA) were suspended in isotonic saline containing 1% CMC-Na and used as positive drugs in in vivo experiments. […] After the mice were euthanized on the eighth day, the brains, livers, and spleens were collected. DNA was isolated with a DNA purification kit ([…], Omega Bio-Tek, USA). The in vivo efficacy of the compounds against T. gondii was evaluated via quantitative real-time PCR with DNA from the brain, liver, and spleen. The numbers of parasites in the tissue samples were determined using standard curves constructed using known numbers of tachyzoites, as previously described.

For series [4], the system named is PRU strain bradyzoite cysts. The series can be described thus: In vitro PRU bradyzoite cyst formation (DBA staining). In kind it is cell-based, Toxoplasma gondii. The following applies: PRU cysts in Vero cells, 48 h; NBZ023 2.85 or 30 μM, NBZ035 1.6 or 30 μM. Here is the method: The conditions for inducing the formation of cysts in vitro by the type II PRU strain were described in a previously published study. After the induction of cyst formation, the alkaline medium was removed and replaced with a medium containing NBZ023, NBZ035, or 0.1% DMSO as the control. After 48 h, the DMEM was removed, and the PRU strain bradyzoite cysts were stained with Dolichos biflorus agglutinin (DBA) to assess the treatment effects.The stained cysts were observed using light microscopy under a 40 × objective lens, with at least 3 random fields per well counted.

A further series relates to T. gondii tachyzoites. The series can be described thus: Ultrastructural analysis by transmission electron microscopy. In kind it is cell-based, Toxoplasma gondii. Particulars: NBZ023 2.85 μM, NBZ035 1.6 μM. Here is the method: The effects of the incubation with the drugs on the ultrastructure of T. gondii tachyzoites were observed via transmission electron microscopy (TEM). For TEM analysis, Vero cells were grown to confluence in T25 flasks and infected with 2 × 10^6 T. gondii tachyzoites for 8 h. After NBZ023 (2.85 μM) or NBZ035 (1.6 μM) was added, the cells were cultured for 8 or 24 h, then digested with TrypLE Express for 2 min, and washed twice with PBS. The detailed experimental procedures were described in a previous study.

For another series, the system named is T. gondii PRU strain. The series can be described thus: In vitro activity against PRU strain tachyzoites (PV counts, plaques). In kind it is cell-based, Toxoplasma gondii. The following applies: NBZ023 2.85 or 30 μM, NBZ035 1.6 or 30 μM; 24, 48, 72 h. The protocol: Vero cells were infected for 8 h with extracellular type II PRU strain tachyzoites (1.5 × 10^5), which were isolated from a mouse brain, and then the medium containing compounds or 0.1% DMSO (as a control) was added. After 24, 48, and 72 h of incubation, the numbers of PVs were assessed via […] under a 40 × objective lens, and at least 20 random fields per well were counted.

A further series relates to Vero cells. The series can be described thus: Cell viability assay (CCK-8) on Vero cells. Particulars: 24 h; for Cytotoxicity: CCK-8, tested up to 30 µM; for inhibition at 30 µM: Chlorocebus sabaeus, CCK-8, read-out: Inhibition rate of Vero cell at 30 μM. It is filed as cell-based, African green monkey. Here is the method: (§1) African green monkey kidney (Vero) cells were cultured in Dulbecco’s modified Eagle’s medium (DMEM) supplemented with 100 U/mL penicillin, 100 μg/mL streptomycin, 1% nonessential amino acids (NEAAs), 1% GlutaMAX and 10% fetal bovine serum (FBS) at 37 °C in an atmosphere of 5% CO2. […] DMEM without a drug was used as a control. After 24 h of treatment, Cell Counting Kit-8 (CCK-8, CA1210, Solarbio) was used to determine cell viability at 450 nm via a Multiskan GO instrument.

Series [5] can be described thus: Cell viability assay (CCK-8) on Vero cells. It is filed as cell-based, African green monkey. Particulars: African green monkey, CCK-8, read-out: half-maximal cytotoxic concentration (CC50) against host cells. The protocol:
as §1

A further series concerns T. gondii RH tachyzoites. In words: Screening for anti-T. gondii activity in vitro (plaque and qPCR assays). In kind it is cell-based, Toxoplasma gondii. Particulars: for inhibition of growth at 30 µM: Toxoplasma gondii, Vero, 24 h, RH tachyzoites in Vero cells, plaque and qPCR assays. Here is the method: The anti-T. gondii activity of compounds NBZ001‒037 was examined via RT-PCR. Confluent Vero cells in 6-well plates were infected with 2 × 10^5 T. gondii RH tachyzoites per well, incubated for 6 h, and then washed twice with PBS to remove extracellular tachyzoites. The cell monolayers were incubated with DMEM (1% FBS) containing various concentrations of NBZ001‒037 for 24 h. Total genomic DNA from each sample was isolated with the DNAiso reagent (Takara), and the levels of the 529-bp repeat element of T. gondii were measured by qPCR. A plaque assay was used to evaluate the activity of the compounds. The detailed experimental procedures were described in previous studies.

As for `O=C(Nc1ccccc1)c1ccc2[nH]c3c4[n+](ccc3c2c1)-c1ccccc1C4=O` [NBZ035], in series [1], the IC50 was 1.6 µM. Further, in series [2] (RH strain, qPCR), the IC50 came to 1.13 µM. Further, in [2], the “number of parasitophorous vacuoles (PVs) invaded by RH-GFP tachyzoites” value is listed as “significantly reduced”. Besides, in series [3], the “reduction of mean T. gondii burden in the liver” value stood at 88.52%, the “reduction of mean numbers of T. gondii parasites in the brain” value is 93.21% and the “reduction of mean numbers of T. gondii parasites in the spleen” value is 89.40%. The “inhibition of the formation of T. gondii cysts compared with control” value in series [4] is given as “twofold”. Also, the “ultrastructural change of T. gondii tachyzoites (TEM)” value (“ultrastructural change” below) in the series on T. gondii tachyzoites (24 h of treatment) was “the parasite ruptured, and severe cavitation occurred”. The “ultrastructural change” value in the series with T. gondii tachyzoites (incubation 8 h) is on record as “cracks in the somatic cytoplasm of the parasite”. Moreover, in the series with T. gondii PRU strain, the “proliferation ability of the T. gondii PRU strain (parasites per PV, number of PVs)” value is “significantly (P ≤ 0.05) inhibited”. In the series on Vero cells, the Cytotoxicity is above 30.00 µM and the inhibition at 30 µM is 3.27%. In series [5], the CC50 at 24 h stood at 80.6 µM.
In the case of `O=C(Nc1ccccc1)c1ccc2[nH]c3c(C(=O)c4cccc(Br)c4)nccc3c2c1` [NBZ023], the “increase in potency compared with nonaromatic heterocycles (NBZ016–018)” value in the series with T. gondii RH tachyzoites (30 μM screening) is 2- to 3 fold. In series [1] (CC50 host cells / IC50 proliferation), the “selectivity index (SI)” value was found to be 309.8. Moreover, in [1], the IC50 turned out to be 2.85 µM. The IC50 in series [2] (RH strain, qPCR) came to 4.72 µM. The “number of parasitophorous vacuoles (PVs) invaded by RH-GFP tachyzoites” value in series [2] is given as “significantly reduced”. In addition, in series [3], the “reduction of mean T. gondii burden in the liver” value is listed as 56.42%, the “reduction of mean numbers of T. gondii parasites in the brain” value was determined as 70.72% and the “reduction of mean numbers of T. gondii parasites in the spleen” value is 68.90%. For the same molecule, the “inhibition of the formation of T. gondii cysts compared with control” value in series [4] is recorded as “twofold”. Moreover, the “ultrastructural change” value in the series with T. gondii tachyzoites (24 h of treatment) is “the parasite ruptured, and severe cavitation occurred”. The “ultrastructural change” value in the series on T. gondii tachyzoites (incubation 8 h) is reported as “cracks in the somatic cytoplasm of the parasite”. Moreover, the “proliferation ability of the T. gondii PRU strain (parasites per PV, number of PVs)” value with T. gondii PRU strain was “significantly (P ≤ 0.05) inhibited”. For the same molecule, in the series with Vero cells, the Cytotoxicity is above 30.00 µM and the inhibition at 30 µM is 4.56%. In addition, the CC50 at 24 h in series [5] worked out at 883 µM.
Consider `CCCCNC(=O)c1ccc2[nH]c3c(C(=O)c4ccccc4Br)nccc3c2c1` [NBZ014], for which the inhibition of growth at 30 µM with T. gondii RH tachyzoites stood at 2.09%. In the series with Vero cells, the Cytotoxicity was above 30.00 µM and the inhibition at 30 µM worked out at 19.7%.
Take `O=C(c1ccccc1Br)c1nccc2c1[nH]c1ccc(Br)cc12` [NBZ003]: at 30 µM the inhibition of growth in the series on T. gondii RH tachyzoites was 40.8%. Further, in the series with Vero cells, the Cytotoxicity was above 30.00 µM and the inhibition at 30 µM turned out to be 21.8%.
With `CCc1nc(N)nc(N)c1-c1ccc(Cl)cc1` [pyrimethamine, reference compound], in series [2] (0.4 μM, RH strain, qPCR), the anti-invasion rate was 26.77%.
Take `O=C(NCc1ccco1)c1ccc2[nH]c3c(C(=O)c4ccccc4Br)nccc3c2c1` [NBZ017]: the inhibition of growth at 30 µM with T. gondii RH tachyzoites is 43.4%. In the series on Vero cells, the Cytotoxicity is above 30.00 µM and the inhibition at 30 µM came out at 10.8%.
